In ChEMBL document CHEMBL1149717, “Three New Eudesmane Sesquiterpenes from Pluchea arguta” (J Nat Prod, 1992):
Active and inactive are the calls of the source.

What was measured:
Type in all cases: functional, organism-based
Lactococcus lactis = assay: Antibacterial activity against Streptococcus lactis
Klebsiella pneumoniae = assay: Antibacterial activity against Klebsiella ozaenae; settings: subsp. ozaenae
Proteus vulgaris = assay: Antibacterial activity against Proteus vulgaris

Measured: Activity

CC(=O)O[C@]1(C)[C@@H]2C=C(C(C)(C)O)C(=O)C[C@@]2(C)CC[C@H]1OC(=O)C(C)(O)C(C)Cl (stereo partly drawn)
active: all assays above
